Results on 31 molecules are retold here after US20080207694A1, “Hydroxamates as Histone Deacetylase Inhibitors and Pharmaceutical Formulations Containing Them” (priority 2005, published 2008).

Assay [1] concerns histone deacetylase (HDAC), nuclear extract of Hela cells. Kind of assay: Deacetylase activity on nuclear extract of HeLa cells (Fluor de Lys kit). The assay is classed as biochemical, human. To be noted: percent inhibition relative to control without inhibitor, compound at 0.1 μM. The procedure: (§1) The activity of the compounds as histone deacetylase (HDAC) inhibitors was measured using an in vitro acetylation assay. The compounds were then evaluated as inhibitors of proliferation of human tumor cell cultures.
Deacetylase Activity on Nuclear Extract of Hela Cells (Human Cervical Cancer Cell)
The assay (Fluor de Lys™ kit, BioMol) is divided into two steps: in the first step the substrate which comprises an acetylated lysine residue is reacted with the nuclear extract (HeLa) containing the enzymatic activity in the presence and absence of inhibitors. In the second step a fluorogenic reagent is added which highlights the deacetylated residues. A reduction in fluorescence is obtained where there has been inhibition of the deacetylase activity. The result is finally expressed as percent inhibition relative to the control without inhibitor at a concentration of 0.1 μM.

Assay [2] concerns Human colon carcinoma cells HCT-116. Kind of assay: Cytotoxic activity on culture of human colon carcinoma cells HCT-116 (Alamar Blue). It is filed as cell-based. Particulars: HCT-116 cells, 72 hours after addition of compounds, Alamar Blue viability. The procedure: as §1
24 hours after seeding, the compounds at different concentrations are added. […] 72 hours after addition of the compounds, cell viability is measured by means of the dye Alamar Blue.

Turning to `O=C(CCCC1CCN(C(=O)NCc2ccccc2)CC1)NO` [Ex 7, 4-(3-Hydroxycarbamoyl-propyl)-piperidine-1-carboxylic acid benzylamide], the “% inhib. 0.1 μM” value in assay [1] was found to be 59%. Inhibition in assay [2] (Homo sapiens, HCT-116, 72 h) was half-maximal at 300 nM (IC50).

Turning to `O=C(CCCC1CCN(C(=O)Nc2ccccc2)CC1)NO` [Ex 8, 4-(3-Hydroxycarbamoyl-propyl)-piperidine-1-carboxylic acid phenylamide], the “% inhib. 0.1 μM” value in assay [1] was 53%. The IC50 in assay [2] (Homo sapiens, HCT-116, 72 h) turned out to be 700 nM.

Consider `Cc1ccc2ccccc2c1C(=O)N1CCC(CCCC(=O)NO)CC1` [Ex 15, N-Hydroxy-4-[1-(2-methyl-naphthalene-1-carbonyl)-piperidin-4-yl]-butyramide], for which the “% inhib. 0.1 μM” value in assay [1] is 43%. Also, inhibition in assay [2] (Homo sapiens, HCT-116, 72 h) was half-maximal at 840 nM (IC50).

With `Cc1ccc(NC(=O)N2CCC(CCCC(=O)NO)CC2)cc1` [Ex 22, 4-(3-Hydroxycarbamoyl-propyl)-piperidine-1-carboxylic acid p tolylamide], the “% inhib. 0.1 μM” value in assay [1] amounted to 67%. Moreover, the half-inhibitory concentration (IC50) in assay [2] stood at 940 nM.

For the molecule `O=C(CCCC1CCN(C(=O)NCc2ccc(Cl)cc2)CC1)NO` [Ex 34, 4-(3-Hydroxycarbamoyl-propyl)-piperidine-1-carboxylic acid 4-chloro-benzylamide], the “% inhib. 0.1 μM” value in assay [1] is reported as 64%. In assay [2] (Homo sapiens, HCT-116, 72 h), this molecule registered a concentration for half-maximal inhibition (IC50) of 330 nM.

With `O=C(CCCC1CCN(C(=O)Nc2cccc3ccccc23)CC1)NO` [Ex 35, 4-(3-Hydroxycarbamoyl-propyl)-piperidine-1-carboxylic acid 1-naphthylamide], the “% inhib. 0.1 μM” value in assay [1] is reported as 55%. The molecule also came in with an IC50 in assay [2] (Homo sapiens, HCT-116, 72 h) of 710 nM.

Turning to `O=C(CCCC1CCN(C(=O)Nc2ccc3ccccc3c2)CC1)NO` [Ex 36, 4-(3-Hydroxycarbamoyl-propyl)-piperidine-1-carboxylic acid 2-naphthylamide], in assay [1], the “% inhib. 0.1 μM” value is listed as 73%. This molecule also had an IC50 in assay [2] (Homo sapiens, HCT-116, 72 h) of 830 nM.

On to `O=C(CCCC1CCN(C(=O)NCc2cccc(Cl)c2)CC1)NO` [Ex 39, 4-(3-Hydroxycarbamoyl-propyl)-piperidine-1-carboxylic acid 3-chloro-benzylamide], for which, in assay [1], the “% inhib. 0.1 μM” value was 60%. The molecule further returned an IC50 in assay [2] (Homo sapiens, HCT-116, 72 h) of 810 nM.

As to `O=C(CCCC1CCN(C(=O)NCc2ccccc2F)CC1)NO` [Ex 45, 4-(3-Hydroxycarbamoyl-propyl)-piperidine-1-carboxylic acid 2-fluoro-benzylamide], the “% inhib. 0.1 μM” value in assay [1] turned out to be 79%. Besides, in assay [2] (Homo sapiens, HCT-116, 72 h), the IC50 worked out at 890 nM.

Turning to `Cc1ccc(CNC(=O)N2CCC(CCCC(=O)NO)CC2)cc1` [Ex 52, 4-(3-Hydroxycarbamoyl-propyl)-piperidine-1-carboxylic acid 4-methyl-benzylamide], in assay [1], the “% inhib. 0.1 μM” value is 68%. Also, the 50% inhibitory concentration (IC50) in assay [2] (Homo sapiens, HCT-116, 72 h) is 500 nM.

On to `Nc1ccccc1NC(=O)N1CCC(CCCC(=O)NO)CC1` [Ex 73, 4-(3-Hydroxycarbamoyl-propyl)-piperidine-1-carboxylic acid (2-amino-phenyl)-amide], for which the “% inhib. 0.1 μM” value in assay [1] stood at 73%. In addition, it took 840 nM to reach half-maximal inhibition in assay [2] (Homo sapiens, HCT-116, 72 h) (IC50).

For the molecule `O=C(CCCC1CCN(C(=O)CNC(=O)c2cc3ccccc3s2)CC1)NO` [Ex 79, Benzo[b]thiophene-2-carboxylic acid {2-[4-(3-hydroxycarbamoyl-propyl)-piperidin-1-yl]-2-oxo-ethyl}-amide], the “% inhib. 0.1 μM” value in assay [1] is on record as 70%. This molecule displayed an IC50 in assay [2] (Homo sapiens, HCT-116, 72 h) of 770 nM.

In the case of `N[C@@H](CCc1ccccc1)C(=O)N1CCC(CCCC(=O)NO)CC1` [Ex 82, 4-[1-(2-(S)-Amino-4-phenyl-butyryl)-piperidin-4-yl]-N-hydroxy-butyramide], the “% inhib. 0.1 μM” value in assay [1] was 62%. Half-maximal inhibition in assay [2] (Homo sapiens, HCT-116, 72 h) (IC50) required 530 nM.

On to `O=C(CCCC1CCN(C(=O)Nc2cccc(Cl)c2F)CC1)NO` [Ex 83, 4-(3-Hydroxycarbamoyl-propyl)-piperidine-1-carboxylic acid (3-chloro-2-fluoro-phenyl)-amide], for which, in assay [1], the “% inhib. 0.1 μM” value was 58%. In assay [2] (Homo sapiens, HCT-116, 72 h), this molecule yielded a half-maximal inhibitory concentration (IC50) of 670 nM.

For `O=C(CCCC1CCN(C(=O)Nc2ccc(Cl)cc2F)CC1)NO` [Ex 90, 4-(3-Hydroxycarbamoyl-propyl)-piperidine-1-carboxylic acid (4-chloro-2-fluoro-phenyl)-amide], the “% inhib. 0.1 μM” value in assay [1] came to 56%. For the same molecule, the IC50 in assay [2] (Homo sapiens, HCT-116, 72 h) was 450 nM.

Regarding `N[C@H](Cc1cccc2ccccc12)C(=O)N1CCC(CCCC(=O)NO)CC1` [Ex 93, 4-[1-(2-(R)-Amino-3-naphthalen-1-yl-propionyl)-piperidin-4-yl]-N-hydroxy-butyramide], in assay [1], the “% inhib. 0.1 μM” value was determined as 64%. In addition, the half-maximal inhibitory concentration (IC50) in assay [2] (Homo sapiens, HCT-116, 72 h) came to 500 nM.

For the molecule `O=C(CCCC1CCN(C(=O)[C@H](CO)NC(=O)c2cc3ccccc3s2)CC1)NO` [Ex 101, Benzo[b]thiophene-2-carboxylic acid {2-[4-(3-hydroxycarbamoyl-propyl)-piperidin-1-yl]-1-(S)-hydroxymethyl-2-oxo-ethyl}-amide], the “% inhib. 0.1 μM” value in assay [1] stood at 64%. In assay [2] (Homo sapiens, HCT-116, 72 h), this molecule registered an IC50 of 510 nM.

With `O=C(CCCC1CCN(C(=O)[C@@H](CO)NC(=O)c2cc3ccccc3s2)CC1)NO` [Ex 102, Benzo[b]thiophene-2-carboxylic acid {2-[4-(3-hydroxycarbamoyl-propyl)-piperidin-1-yl]-1-(R)-hydroxymethyl-2-oxo-ethyl}-amide], the “% inhib. 0.1 μM” value in assay [1] is 54%. This molecule displayed an IC50 in assay [2] (Homo sapiens, HCT-116, 72 h) of 790 nM.

Regarding `CN(C)[C@@H](CCc1ccccc1)C(=O)N1CCC(CCCC(=O)NO)CC1` [Ex 103, 4-[1-(2-(S)-Dimethylamino-4-phenyl-butyryl)-piperidin-4-yl]-N-hydroxy-butyramide], the “% inhib. 0.1 μM” value in assay [1] is recorded as 49%. Besides, the IC50 in assay [2] (Homo sapiens, HCT-116, 72 h) is 200 nM.

As for `N[C@@H](CCc1ccccc1)C(=O)N1CCC(CCCC(=O)NO)CC1` [Ex 105, 4-[1-(2-(S)-Amino-4-phenyl-butyryl)-piperidin-4-yl]-N-hydroxy-butyramide], the “% inhib. 0.1 μM” value in assay [1] is 59%. The molecule also had an IC50 in assay [2] of 950 nM.

In the case of `O=C(CCCC1CCN(C(=O)NCc2ccco2)CC1)NO` [Ex 106, 4-(3-Hydroxycarbamoyl-propyl)-piperidine-1-carboxylic acid (furan-2-ylmethyl)-amide], the “% inhib. 0.1 μM” value in assay [1] worked out at 52%. Besides, 710 nM corresponded to half-maximal inhibition in assay [2] (Homo sapiens, HCT-116, 72 h) (IC50).

As for `N[C@@H](CC(=O)N1CCC(CCCC(=O)NO)CC1)c1ccc2ccccc2c1` [Ex 109, 4-[1-(3-(S)-Amino-3-naphthalen-2-yl-propionyl)-piperidin-4-yl]-N-hydroxy-butyramide], in assay [1], the “% inhib. 0.1 μM” value stood at 71%. In assay [2] (Homo sapiens, HCT-116, 72 h), this molecule had an IC50 of 68 nM.

`O=C(CCCC1CCN(C(=O)[C@@H](CCO)NC(=O)c2cc3ccccc3s2)CC1)NO` [Ex 110, Benzo[b]thiophene-2-carboxylic acid{3-hydroxy-1-(R)-[4-(3-hydroxycarbamoyl-propyl)-piperidine-1-carbonyl]-propyl}-amide]: in assay [1], the “% inhib. 0.1 μM” value amounted to 54%. In assay [2], this molecule had a half-maximal inhibitory concentration (IC50) of 260 nM.

Consider `N[C@H](CC(=O)N1CCC(CCCC(=O)NO)CC1)c1ccc2ccccc2c1` [Ex 111, 4-[1-(3-(R)-Amino-3-naphthalen-2-yl-propionyl)-piperidin-4-yl]-N-hydroxy-butyramide], for which, in assay [1], the “% inhib. 0.1 μM” value is given as 66%. This molecule gave a half-maximal inhibitory concentration (IC50) in assay [2] (Homo sapiens, HCT-116, 72 h) of 550 nM.

Turning to `N[C@@H](CC(=O)N1CCC(CCCC(=O)NO)CC1)c1ccccc1` [Ex 112, 4-[1-(3-(S)-Amino-3-phenyl-propionyl)-piperidin-4-yl]-N-hydroxy-butyramide], the “% inhib. 0.1 μM” value in assay [1] is on record as 55%. The same molecule gave a half-inhibitory concentration (IC50) in assay [2] (Homo sapiens, HCT-116, 72 h) of 310 nM.

As to `O=C(CCCC1CCN(C(=O)[C@H](CCO)NC(=O)c2cc3ccccc3s2)CC1)NO` [Ex 113, Benzo[b]thiophene-2-carboxylic acid{3-hydroxy-1-(S)-[4-(3-hydroxycarbamoyl-propyl)-piperidine-1-carbonyl]-propyl}-amide], in assay [1], the “% inhib. 0.1 μM” value is reported as 61%. This molecule displayed an IC50 in assay [2] of 270 nM.

`O=C(CCCC1CCN(C(=O)[C@H](CO)NC(=O)c2ccc3sccc3c2)CC1)NO` [Ex 114, Benzo[b]thiophene-5-carboxylic acid{2-[4-(3-hydroxycarbamoyl-propyl)-piperidin-1-yl]-1-(S)-hydroxymethyl-2-oxo-ethyl}-amide]: the “% inhib. 0.1 μM” value in assay [1] is given as 61%. The IC50 in assay [2] was 340 nM.

Turning to `NC[C@@H](NC(=O)c1cc2ccccc2s1)C(=O)N1CCC(CCCC(=O)NO)CC1` [Ex 115, 2-oxo-ethyl}-amideBenzo[b]thiophene-2-carboxylic acid{1-(R)-aminomethyl-2-[4-(3-hydroxycarbamoyl-propyl)-piperidin-1-yl]-], in assay [1], the “% inhib. 0.1 μM” value was 62%. This molecule displayed an IC50 in assay [2] of 900 nM.

Regarding `O=C(CCCC1CCN(C(=O)[C@H](CO)NC(=O)c2nccc3ccccc23)CC1)NO` [Ex 122, Isoquinoline-1-carboxylic acid {2-[4-(3-hydroxycarbamoyl-propyl)-piperidin-1-yl]-1-(S)-hydroxymethyl-2-oxo-ethyl}-amide], in assay [1], the “% inhib. 0.1 μM” value was found to be 42%. Besides, it took 420 nM to reach half-maximal inhibition in assay [2] (Homo sapiens, HCT-116, 72 h) (IC50).

With `Cc1ccc(NC(=O)N2CCC(CCCC(=O)NO)CC2)c(N)c1` [Ex 126, 4-(3-Hydroxycarbamoyl-propyl)-piperidine-1-carboxylic acid (2-amino-4-methyl-phenyl)-amide], the “% inhib. 0.1 μM” value in assay [1] was found to be 63%. The IC50 in assay [2] (Homo sapiens, HCT-116, 72 h) was found to be 400 nM.

Take `CCCOc1ccc(NC(=O)N2CCC(CCCC(=O)NO)CC2)cc1` [Ex 137, 4-(3-Hydroxycarbamoyl-propyl)-piperidine-1-carboxylic acid (4-propoxy-phenyl)-amide]: the “% inhib. 0.1 μM” value in assay [1] was 68%. Also, half-maximal inhibition in assay [2] (Homo sapiens, HCT-116, 72 h) (IC50) required 150 nM.

As a reminder, the IC50 is the concentration that gives 50% inhibition. A higher IC50 goes with weaker potency.
